Assay results taken from US20060264498A1, “Anti-obesity agent” (Kyowa Hakko Kogyo Co., Ltd., priority 2003, published 2006).

System: KK-Ay/Ta Jc1 mice
Assay: Body weight increase per ingested feed amount in obesity type 2 diabetic model mice
Type: in vivo
Conditions: KK-Ay/Ta Jc1 male mice, 1% by weight in CE-2 feed; for Body Weight Increase/ Ingested Feed Amount (%): free intake, initial day to 17th day, mean value ± standard error (n=5); for body weight increase per ingested feed amount as compared with group 1 (CE-2 feed only): 17 days, t-test
Source text: KK-Ay/Ta Jc1 mice (Clea Japan, Inc.; male; six weeks age)(15 mice) of an obesity type 2 diabetic model were divided into three groups each comprising five and named group 1 to group 3.
The mice of the groups 1 to 3 were made free to take feed and water. A commercially available feed CE-2 (manufactured by Clea Japan, Inc.) was ingested to the mice of group 1. CE-2 to which 1% by weight of trans-4-hydroxy-L-proline (manufactured by Kyowa Hakko Kogyo; hereinafter, abbreviated as the hydroxyproline) was added was ingested to the mice of group 2. CE-2 to which 1% by weight of trans-N-acetyl-4-hydroxy-L-proline (manufactured by Kyowa Hakko Kogyo; hereinafter, abbreviated as the N-acetylhydroxyproline) was added was ingested to the mice of group 3.
Body weight on the initial day of the test and on the 17th day and amount of the ingested feed from the initial day of the test to the 17th day were measured. As an index for the progress of obesity, a body weight increase during the test period for the total ingested feed amount during the test period was calculated for each mouse. The value was shown in terms of mean value±standard error (n=5) and statistic ratio of risk (p value) was determined by a t-test.

## CC(=O)N1C[C@H](O)C[C@H]1C(=O)O [N-acetylhydroxyproline, trans-N-acetyl-4-hydroxy-L-proline]
  Body Weight Increase/ Ingested Feed Amount (%): 4.2 ± 0.6 %
  body weight increase per ingested feed amount as compared with group 1 (CE-2 feed only): significantly low

## O=C(O)[C@@H]1C[C@@H](O)CN1 [hydroxyproline, trans-4-hydroxy-L-proline]
  Body Weight Increase/ Ingested Feed Amount (%): 5.8 ± 0.4%
  body weight increase per ingested feed amount as compared with group 1 (CE-2 feed only): tended to show low value
